Measured values as given in patent US11116735B2, “Use of substituted benzylideneguanidine derivatives as synergists for polymyxin antibiotics” (GUANGZHOU INSIGHTER BIOTECHNOLOGY CO., LTD., priority 2015, dated 2021).
“And” between values parts separate entries of the source, which are not always exact repeats. Equal entries are not always repeated.

How the values were obtained:
[1] = system: Shigella sp. 2D89; assay: MIC, resistance reversal by various concentrations of compound 3, Shigella sp. 2D89
Description: The compound 3 in this embodiment was in the form of a hydrochloride, i.e., the experiments were carried out with a hydrochloride of compound 3.
In vitro minimum inhibitory concentrations of colistin sulfate against the strains where the cultures respectively comprised various concentrations of compound 3 were also measured.

[2] = system: weanling piglets; assay: Synergy of compound 3 and colistin sulfate in the feed for weanling piglets; type: in vivo, Duroc×Landrace×Large crossbred lean weanling piglets; conditions: for Average daily weight gain / Diarrhea rate / Feed conversion ratio: weanling piglets, ten days
Description: (§1) 120 28-day-aged Duroc×Landrace×Large crossbred lean weanling piglets similar in weight were divided into 12 groups, 10 piglets in each group. For each group, colistin sulfate and/or compound 3 were added into the antibiotic-free creep feed. The piglets were given ad libitum access to feed and water during the experiment. Weight gain, feed efficiency and diarrhea rate of each group within ten days were recorded.

[3] = system: weanling piglets; assay: Synergy of derivatives and colistin sulfate in the feed for weanling piglets; type: in vivo, Duroc×Landrace×Large crossbred lean weanling piglets; conditions: creep feed with 20 ppm colistin sulfate and 150 ppm derivative (hydrochloride), ten days
Description: as §1, with “90” for “120”, “9” for “12”, “various substituted benzylideneguanidine derivatives” for “compound 3”

[4] = 20 ppm colistin sulfate and 150 ppm compound 3 in creep feed (Test, groups 10-12)
[5] = 150 ppm in creep feed, no colistin sulfate (Control 2, groups 7-9)

## CC(C)Oc1ccc(C=NN=C(N)NN=Cc2ccc(OC(C)C)cc2)cc1 [Compound 3]
[1]; 5 ppm compound 3
  In vitro MIC of colistin sulfate in the presence of compound 3: 16.00 ppm
[1]; 10 ppm compound 3
  In vitro MIC of colistin sulfate in the presence of compound 3: 2.00 ppm
[1]; 20 ppm compound 3
  In vitro MIC of colistin sulfate in the presence of compound 3: 1.00 ppm
[1]; 40 ppm compound 3
  In vitro MIC of colistin sulfate in the presence of compound 3: 0.25 ppm
[1]; 80 ppm compound 3
  In vitro MIC of colistin sulfate in the presence of compound 3: 0.25 ppm
[1]; colistin sulfate with 0 ppm compound 3, or compound 3 (hydrochloride) in the absence of colistin sulfate
  In vitro MIC of the substance alone: >800 ppm
[2]; groups 10, 11 and 12: colistin sulfate added together with compound 3
  Reduction of the diarrhea rate: 20%
[2]; [4]
  Average daily weight gain: 254 g and 248 g and 251 g
  Diarrhea rate: 12% and 9% and 10%
  Feed conversion ratio: 1.435 and 1.427 and 1.453
[2]; [5]
  Average daily weight gain: 200 g and 205 g and 211 g
  Diarrhea rate: 36% and 38% and 34%
  Feed conversion ratio: 1.666 and 1.639 and 1.647
[3]
  Average daily weight gain: 258 g
  Diarrhea rate: 8%
  Feed conversion ratio: 1.441
